This passage reports IC50 results from patent US20060116390A1, “Hepatitis c virus inhibitors” (priority 2003, published 2006).

In the experiment the test system is HCV proteins in Rep5.1 cells (replicon cell line). The experiment in a line: Inhibitory activity of HCV: cell-based ELISA in replicon cell line Rep5.1 (decrease of HCV proteins). More on the design: species or system hepatitis C virus. To be noted: Hepatitis C virus, 72 h, Rep5.1 cells, 72 hours with drug. Put shortly:
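HCV protein loss was quantified by ELISA on methanol/acetone-fixed cells 72 h after drug addition, probing with selected HCV-positive human plasma, and IC50 was defined as 50% reduction relative to untreated wells. The cells were Rep5.1 replicon cells cultured in DMEM-10 with 500 μg/ml G418, plated at 5000 per well and dosed with serial dilutions after 4 h attachment.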

[1] abbreviates: concentration at which 50% of HCV proteins was decreased, Table 2, read-out: IC50.
Setting [2] is: decrease of HCV proteins measured by HCV antibody, Table 1, read-out: Level (IC50 values classified).

The structures appear in SMILES notation. Like-named read-outs stand apart in the source and are kept apart here. A value given as a limit tells only on which side of the number the result lay.

As a reminder, the IC50 is the midpoint of a concentration-inhibition curve. For `CC1=C(C(=O)OCc2ccc(N(C)C)cc2)CNC(=S)N1` [Compound 79, 6-methyl-2-thioxo-1,2,3,4-tetrahydro-pyrimidine-5-carboxylic acid 4-dimethylamino-benzyl ester], the IC50 was 1300 nM under setting [1] and 1000 to 10000 nM under setting [2].

In the case of `CC1=C(C(=O)OCC2CCC2)CNC(=S)N1` [Compound 80, 6-methyl-2-thioxo-1,2,3,4-tetrahydro-pyrimidine-5-carboxylic acid cyclobutylmethyl ester], the IC50 under setting [1] amounted to 2300 nM and the IC50 under setting [2] fell in the range of 1000 to 10000 nM.

As to `COc1cc(COC(=O)C2=C(C)NC(=S)NC2)cc(OC)c1` [Compound 81, 6-methyl-2-thioxo-1,2,3,4-tetrahydro-pyrimidine-5-carboxylic acid 3,5-dimethoxy-benzyl ester], the IC50 reads like this: under setting [1], 3000 nM; under setting [2], 1000 to 10000 nM.

For the molecule `CC1=C(C(=O)OCc2cc(C)cc(C)c2)CNC(=S)N1` [Compound 82, 6-methyl-2-thioxo-1,2,3,4-tetrahydro-pyrimidine-5-carboxylic acid 3,5-dimethyl-benzyl ester], the IC50 was 300 nM under setting [1] and under 1000 nM under setting [2].

`CC1=C(C(=O)OCc2cccc(F)c2)CNC(=S)N1` [Compound 83, 6-methyl-2-thioxo-1,2,3,4-tetrahydro-pyrimidine-5-carboxylic acid 3-fluoro-benzyl ester]: the IC50 by setting is: under setting [1], 1000 nM; under setting [2], under 1000 nM.

`CC1=C(C(=O)OCc2ccccc2Cl)CNC(=S)N1` [Compound 84, 6-methyl-2-thioxo-1,2,3,4-tetrahydro-pyrimidine-5-carboxylic acid 2-chloro-benzyl ester]: the half-inhibitory concentration (IC50) is under 400 nM under setting [1] and under 1000 nM under setting [2].

Turning to `CC1=C(C(=O)SCc2ccccc2)CNC(=S)N1` [Compound 85, 6-methyl-2-thioxo-1,2,3,4-tetrahydro-pyrimidine-5-carbothioic acid S-benzyl ester], the IC50 reads like this: under setting [1], 100 nM; under setting [2], under 1000 nM.

As to `CC1=C(C(=O)OC2CCN(Cc3ccccc3)CC2)CNC(=S)N1` [Compound 86, 6-methyl-2-thioxo-1,2,3,4-tetrahydro-pyrimidine-5-carboxylic acid 1-benzyl-piperidin-4-yl ester], the half-inhibitory concentration (IC50) by setting is: under setting [1], over 100000 nM; under setting [2], over 20000 nM.

As for `O=C(OCc1ccccc1)C1=C(C(=O)OCc2ccccc2)NC(=S)NC1` [Compound 87, 2-thioxo-1,2,3,6-tetrahydro-pyrimidine-4,5-dicarboxylic acid dibenzyl ester], the half-maximal inhibitory concentration (IC50) is, setting by setting: under setting [1], 56000 nM; under setting [2], over 20000 nM.

Consider `COc1ccc(CCCOC(=O)C2=C(C)NC(=S)NC2)cc1` [Compound 88, 6-methyl-2-thioxo-1,2,3,4-tetrahydro-pyrimidine-5-carboxylic acid 3-(4-methoxy-phenyl)-propyl ester], for which the IC50 was 700 nM under setting [1] and under 1000 nM under setting [2].

Turning to `CC1=C(C(=O)OCc2ccc(C)cc2)CNC(=S)N1` [Compound 89, 6-methyl-2-thioxo-1,2,3,4-tetrahydro-pyrimidine-5-carboxylic acid 4-methyl-benzyl ester], the IC50 runs as follows: under setting [1], 800 nM; under setting [2], under 1000 nM.

For `CC1=C(C(=O)OCc2cccc(C)c2)CNC(=S)N1` [Compound 90, 6-methyl-2-thioxo-1,2,3,4-tetrahydro-pyrimidine-5-carboxylic acid 3-methyl-benzyl ester], the IC50 by setting is: under setting [1], 400 nM; under setting [2], under 1000 nM.

`CC1=C(C(=O)OCc2cccc(Cl)c2)CNC(=S)N1` [Compound 91, 6-methyl-2-thioxo-1,2,3,4-tetrahydro-pyrimidine-5-carboxylic acid 3-chloro-benzyl ester]: the half-inhibitory concentration (IC50) reads like this: under setting [1], under 400 nM; under setting [2], under 1000 nM.

For the molecule `COc1ccc(CCOC(=O)C2=C(C)NC(=S)NC2)cc1` [Compound 92, 6-methyl-2-thioxo-1,2,3,4-tetrahydro-pyrimidine-5-carboxylic acid 2-(4-methoxy-phenyl)-ethyl ester], the IC50 runs as follows: under setting [1], 1000 nM; under setting [2], under 1000 nM.
